The record followed here is patent US7071197B2, “N,N-disubstituted diazocycloalkanes” (Recordati S.A., priority 2002, dated 2006).

Experiment [1] concerns the target T1, human 5HT1A-serotonergic receptor (Homo sapiens, UniProt P08908).
T1 construct: expressed in transfected cells
T1 sequence (P08908 1-422): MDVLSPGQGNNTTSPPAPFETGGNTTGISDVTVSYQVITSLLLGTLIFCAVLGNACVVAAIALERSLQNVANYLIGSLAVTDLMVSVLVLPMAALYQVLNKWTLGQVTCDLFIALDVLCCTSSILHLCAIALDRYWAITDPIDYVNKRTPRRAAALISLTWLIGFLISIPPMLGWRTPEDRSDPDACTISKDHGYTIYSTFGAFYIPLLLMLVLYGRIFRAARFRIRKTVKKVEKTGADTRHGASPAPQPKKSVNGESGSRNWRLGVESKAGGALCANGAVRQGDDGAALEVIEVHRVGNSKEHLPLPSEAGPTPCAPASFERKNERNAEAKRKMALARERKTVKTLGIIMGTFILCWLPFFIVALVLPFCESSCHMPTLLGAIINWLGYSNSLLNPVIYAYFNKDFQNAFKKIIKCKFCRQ
In words: [3H]8-OH-DPAT radioligand binding to human recombinant 5-HT1A receptors. To be noted: for Ki: [3H]8-OH-DPAT, HeLa cell membranes, read-out: Affinity: Ki; for potency at the 5-HT1A receptor compared with Ex. 5: statistical signficance p<0.01. How it is done: A genomic clone coding for the human 5HT1A-serotonergic receptor was stably transfected in a human cell line (HeLa). HeLa cells were grown as monolayers in Dulbecco's modified Eagle medium (DMEM), containing 10% fetal bovine serum, gentamycin (0.1 mg/ml) and 5% carbon dioxide, at 37° C. The cells were detached from the growth flask at 95% confluence by a cell scraper and were lysed in cold 5 mM Tris and 5 mM EDTA buffer (pH 7.4). The homogenates were centrifuged at 40000×g×20 minutes and the pellets were resuspended in a small volume of cold 5 mM Tris and 5 mM EDTA buffer (pH 7.4) and immediately frozen and stored at −70° C. until use.
[^3H]8-OH-DPAT binding: on the day of experiment, the cell membranes were resuspended in incubation buffer: 50 mM Tris HCl (pH 7.4), 2.5 mM MgCl2, […] (Fargin et al., Nature 335, 358–360, 1988). The membranes were incubated in a final volume of 1 ml for 30 minutes at 30° C. with 1 nM [^3H]8-OH-DPAT, in the absence or presence of the test compounds. Non-specific binding was determined in the presence of 10 μM 5-HT. Incubation was stopped by addition of cold Tris-HCl buffer and rapid filtration through a 0.2%-polyethyleneimine-pretreated Whatman-GF/B or Schleicher-&-Schuell-GF52 filter.
The affinity of the tested compounds was evaluated as inhibition of specific binding of the radioligand to 5-HT1A receptors (IC50) by using the non-linear curve-fitting program (De Lean et al., Am. J. Physiol. 235, E97-E102, 1978). The IC50 value was converted to an affinity constant (Ki) by the equation of Cheng et al., Biochem. Pharmacol. 22, 3099–3108 (1973).

The target of experiment [2] is T2, rat D3 dopamine receptors (Rattus norvegicus, UniProt P19020).
T2 construct: expressed in transfected cells; host or cells: CHO cells (permanent expression)
T2 sequence (P19020 whole entry): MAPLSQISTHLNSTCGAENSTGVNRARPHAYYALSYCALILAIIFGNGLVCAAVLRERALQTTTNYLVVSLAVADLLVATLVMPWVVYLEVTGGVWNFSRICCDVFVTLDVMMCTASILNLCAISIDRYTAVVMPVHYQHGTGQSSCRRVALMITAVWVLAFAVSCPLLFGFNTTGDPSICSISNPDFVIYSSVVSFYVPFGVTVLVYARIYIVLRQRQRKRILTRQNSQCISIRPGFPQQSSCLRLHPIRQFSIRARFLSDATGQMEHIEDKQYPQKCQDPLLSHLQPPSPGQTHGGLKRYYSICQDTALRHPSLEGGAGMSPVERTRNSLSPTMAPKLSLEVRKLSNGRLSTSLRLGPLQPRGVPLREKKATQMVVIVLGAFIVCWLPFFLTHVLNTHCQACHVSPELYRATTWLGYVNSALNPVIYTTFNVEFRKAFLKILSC
In words: [3H]-7-OH-DPAT binding to rat recombinant D3 dopamine receptors (SPA). To be noted: for Ki: [3H]-7-OH-DPAT, CHO cell membranes, read-out: Binding affinity for D3 dopamine receptors Ki; for D3/5-HT1A: selectivity: ratio of Ki at D3 and Ki at 5-HT1A. As for the experimental part:
Cloned rat D3 dopamine receptors permanently expressed in CHO cells were used (Chio et al. Mol. Pharmacol. 45, 51–60, 1994). Membranes were prepared by mechanical disruption of cell pellets in ice cold 50 mM Tris, 5 mM EDTA, 5 mM EGTA, pH 7.4 followed by low (100 g), medium (20000 g) and high (80000 g) speed centrifugation steps. Competition radioligand binding experiments employed 11 drug concentrations run in duplicate in a scintillation proximity assay (SPA) format. The radioligand used was [^3H]-7-OH-DPAT (154 Ci/mmol). […] binding (75–95% of total) was defined with cold haloperidol added in excess (3 μM). Total binding was determined with buffer: 20 mM HEPES, 10 mM MgSO4, 150 mM NaCl, 1 mM EDTA (pH 7.4). Binding mixtures were made in flexible, 96-well, Wallac Micro-Beta plates by the addition of 11 μl of drug dilution, 11 μl of radioligand, and 178 μl of membrane/SPA bead suspension (100 mg of WGA-coated SPA beads incubated with 5–15 μg protein/plate in 10 ml binding buffer for 30 minutes at room temperature followed by low-speed centrifugation and resuspension in 2 ml binding buffer). After sealing and incubation at room temperature for 1 hour the plates were counted in a Wallac Micro-Beta scintillation counter.
IC50 values from both assay methods were estimated by fitting the data to a one-site competition model: Y=T/(1+10^log(X)−log(IC50)), where Y is the specific CPM's bound at concentration X and T is the specific CPM's bound in the absence of competitor. Inhibition constants (Ki) were calculated using the Cheng-Prushoff equation (Biochem. Pharmacol. 22: 3099–3108, 1973).

What is called Ki is the equilibrium dissociation constant of an inhibitor or competing ligand from its target.

SMILES strings stand for the structures.

Consider `COc1ccccc1N1CCN(CC[C@H](c2ccccc2F)[C@@H](O)C2CCCCC2)CC1` [Ex. 1Y, 1-[(3R,4S)-4-cyclohexyl-4-hydroxy-3-(2-fluorophenyl)-butyl]-4-(2-methoxyphenyl)-piperazine], for which, in experiment [1], the inhibition constant Ki is 0.37 nM and the “potency at the 5-HT1A receptor compared with Ex. 5” value (“potency … compared with Ex. 5” for short) is reported as “more potent than Ex. 5”. In experiment [2], the inhibitory constant (Ki) is 20 nM and the D3/5-HT1A worked out at 54.
On to `COc1ccccc1N1CCN(CC[C@H](c2ccccc2)[C@@H](O)C2CCCCC2)CC1` (racemic) [Ex. 5, 1-[(RS,SR)-4-Cyclohexyl-4-hydroxy-3-phenyl-butyl]-4-(2-methoxyphenyl)-piperazine, reference compound], for which the Ki amounted to 0.65 nM in experiment [1] and 7 nM in experiment [2]. Further, the D3/5-HT1A in experiment [2] is on record as 11.
On to `COc1ccccc1N1CCN(CC[C@H](c2ccccc2F)[C@H](O)C2CCCCC2)CC1` [Ex. 2X, 1-[(3R,4R)-4-cyclohexyl-4-hydroxy-3-(2-fluorophenyl)-butyl]-4-(2-methoxyphenyl)-piperazine], for which, in experiment [1], the Ki is 0.24 nM and the “potency … compared with Ex. 5” value is recorded as “more potent than Ex. 5”. In experiment [2], the Ki was 3 nM and the D3/5-HT1A is 12.
In the case of `COc1ccccc1N1CCN(CC[C@@H](c2ccccc2F)[C@H](O)C2CCCCC2)CC1` (racemic) [Ex. 1, 1-[(SR-RS)-4-cyclohexyl-4-hydroxy-3-(2-fluorophenyl)-butyl]-4-(2-methoxyphenyl)-piperazine], in experiment [1], the inhibition constant Ki was 0.13 nM and the “potency … compared with Ex. 5” value was “more potent than Ex. 5”. For the same compound, in experiment [2], the Ki worked out at 12.5 nM and the D3/5-HT1A was 96.
